We go through 54 compounds from PubChem BioAssay AID179 (DTP/NCI, 2004).

In this experiment the test system is CEM cells HIV-1 protection, formazan growth assay. Kind of experiment: NCI AIDS Antiviral Assay. The note with it: for pIC50: measured here: growth of uninfected CEM cells. In short, it runs like this:
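CEM (human) cells, HIV-1 infected vs uninfected, 5-point dosing, formazan growth read-out. Retest threshold 50% protection.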

Molecules are shown by their SMILES. pEC50, pIC50: −log10 of the molar value. “And” between values parts separate entries of the source, which are not always exact repeats. Identical values can stand only once. The source made the active and inactive calls.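 Rule for the calls: active = compounds giving half or more protection of infected cells from virus-caused growth loss, again on retest; inactive = the rest.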

In the case of `c1ccc([P+](CCSCCSCC[P+](c2ccccc2)(c2ccccc2)c2ccccc2)(c2ccccc2)c2ccccc2)cc1`, the pEC50 (commonly the negative decadic logarithm of the EC50, by convention in mol/L) was less than 3.47 and the pIC50 (in general, −log10 of the IC50, conventionally taken in molar units) was 4.21.

Regarding `CCOC(=O)CCCN(C(=O)c1ccccc1)c1scc(-c2ccccc2)c1C(=O)OCC`, the pEC50 was less than 3.70 and the pIC50 was 4.94.

With `CN(C)CCCNC(=O)c1c(O)c2ccccc2n(C)c1=O`, the pEC50 is less than 3.70 and the pIC50 was 4.10.

`O=C(NCc1ccccc1)c1cc2ccc(O)c(O)c2cn1`: the pEC50 is less than 4.00; the pIC50 is 5.77 and < 5.20.

With `COc1cc(C(C2=C(O)c3ccccc3C(=O)C2=O)C2=C(O)c3ccccc3C(=O)C2=O)cc(OC)c1OC`, the pEC50 is less than 3.70 and the negative logarithm of the IC50 (pIC50) is 4.14.

With `C/C(=N\N=C(/[O-])c1ccccc1)c1cccc(/C(C)=N/N=C(\[O-])c2ccccc2)n1.O.[Ni+2]`, the pEC50 was less than 4.00 and the pIC50 was less than 4.00.

Regarding `CC1=C(C(=O)Nc2ccccc2C)C(c2ccc(N(C)C)cc2)C(C(=O)Nc2ccccc2C)=C(C)N1`, the pEC50 was less than 4.84 and the pIC50 is less than 4.84.

`Cc1ccc(S(=O)(=O)N/N=C2/C3CCC(C3)C2c2ccccc2)cc1` (configuration not stated): the pEC50 was less than 3.70 and the pIC50 is less than 3.70.

For the compound `O=C1c2ccccc2-c2cccc3cccc1c23`, the pEC50 was less than 4.79 and the pIC50 was less than 4.79.

On to `COC1=CC(C)C2C[C@H]3O[C@H](O)C[C@H]4C(C)C(=O)C(O)C([C@@]2(C)C1=O)[C@@]34C` (some centres not stated), for which the result was inactive.

For `Cc1ccc(C2CC(c3ccco3)=NN2c2ccccc2)o1` (configuration not stated), the pEC50 was less than 4.75 and the pIC50 is less than 4.75.

As for `O=S(=O)(O)c1ccc(N=Nc2ccc(N=Nc3c(S(=O)(=O)O)cc4cc(S(=O)(=O)O)cc(O)c4c3O)cc2)cc1`, the result was inactive.

With `N#C/C=C\c1ccc(Cl)cc1`, the pEC50 is less than 4.36 and the pIC50 is less than 4.36.

For `O=c1c2ccccc2nc(/C=C(\O)c2ccncc2)n1-c1ccc(Cl)cc1`, the pEC50 was less than 5.84 and the pIC50 is less than 5.84.

Consider `O=C(c1ccccc1)c1ccc(SSc2ccc(C(=O)c3ccccc3)cc2[N+](=O)[O-])c([N+](=O)[O-])c1`, for which the pEC50 is less than 3.70 and the pIC50 is 4.86.

Regarding `CCN(CC)c1ccc(N=Nc2ccc(-c3nc4ccc[n+](C)c4s3)cc2)cc1`, the pEC50 is less than 5.15 and the pIC50 was 5.32.

As for `C=CCCCCOCOCCOC`, the pEC50 is less than 3.86 and the pIC50 is less than 3.86.

Regarding `C(/C=N/NC1=NCCCCN1)=N\NC1=NCCCCN1`, the pEC50 was less than 3.70 and the pIC50 is less than 3.70.

As for `CCCCc1c2c(nc3c1CC/C(=C\c1ccccc1)C3=O)CCCC2`, the pEC50 is less than 5.38 and the pIC50 is 5.48.

Take `O=C(CCCN1CCc2[nH]c3cc(F)ccc3c2C1)c1ccc(F)cc1`: the pEC50 is less than 3.70 and the pIC50 is 4.61.

Take `NC(CSS(=O)(=O)O)=NCCCc1nc2ccccc2[nH]1`: the pEC50 was less than 3.70 and the negative-log IC50 (pIC50) was 4.34.

Regarding `O=C1CC(c2c(-c3ccccc3)[nH]c3ccccc23)C(=O)N1c1ccccc1` (configuration not stated), the outcome was inactive.

Consider `O=C1c2ccccc2-c2cc(N3C(=O)C=CC3=O)ccc21`, for which the pEC50 was less than 3.70 and the pIC50 was 4.77.

On to `Cc1ccc(C2(C)NC(=S)N(NC(N)=S)C2=S)cc1` (configuration not stated), for which the pEC50 was less than 4.49 and the pIC50 was less than 4.49.

As to `Nc1ncnc2c(C3OC(CO)C(O)C3O)c[nH]c12` (configuration not stated), the pEC50 was less than 3.08 and the pIC50 was 6.58.

Take `Cc1cc(=O)cc2sc3c(C)cccc3nc1-2`: the pEC50 was less than 4.52 and the pIC50 is less than 4.52.

Consider `CCOP(=O)(Cc1nc(C#N)c(N)o1)OCC`, for which the pEC50 is less than 3.70 and the pIC50 is less than 3.70.

In the case of `O=[N+]([O-])c1ccccc1C1SCc2nc3ccccc3n21` (configuration not stated), the pEC50 is less than 4.41 and the pIC50 was 4.47.

Consider `COc1ccc2nc(N/N=C/c3sccc3C)cc(C)c2c1`, for which the pEC50 was less than 3.70 and the pIC50 is 4.76.

Take `CCOC(=O)/C=C1\C(=O)N(Cc2ccccc2)c2ccccc21`: the pEC50 is less than 3.70 and the pIC50 was 6.00.

Regarding `CC1OC(=O)C(C(C)C)NC(=O)C(C(C)C)OC(=O)C(C(C)C)NC(=O)C(C)OC(=O)C(C(C)C)NC(=O)C(C(C)C)OC(=O)C(C(C)C)NC(=O)C(C)OC(=O)C(C(C)C)NC(=O)C(C(C)C)OC(=O)C(C(C)C)NC1=O` (configuration not stated), the pEC50 is less than 7.70 and the negative logarithm of the IC50 (pIC50) was 8.99.

Regarding `NS(=O)(=O)c1ccc(NC2=CC(=O)C(=O)c3ccccc32)cc1`, the pEC50 is less than 4.52 and the pIC50 is less than 4.52.

As to `CN(C)C1C(CO)OC(n2cnc3c(N)ncnc32)C1O` (configuration not stated), the pEC50 is less than 3.70 and the pIC50 was less than 3.70.

`Nc1nnn(N)n1`: the pEC50 was less than 3.70 and the pIC50 was less than 3.70.

Take `CC(NCCCCNC(C)C(=O)O)C(=O)O` (configuration not stated): the pEC50 was less than 3.20 and the pIC50 is less than 3.20.

For `O=C(O)CNc1cc(-c2ccccc2)nc(NCC(=O)O)n1`, the outcome was inactive.

For the compound `COc1cc(CC(C)NC(C)=O)cc(OC)c1` (configuration not stated), the pEC50 was less than 3.70 and the pIC50 is less than 3.70.

Regarding `N=C(N)SCCC(=O)CCSC(=N)N`, the pEC50 is less than 4.07 and the pIC50 is 4.20.

Consider `Cc1cc(=O)[nH]c(CO)n1`, for which the pEC50 was less than 3.70 and the pIC50 was less than 3.70.

For `CCC(=O)[O][Bi]([c]1ccccc1)[c]1ccccc1`, the pEC50 was less than 4.51 and the pIC50 was 5.23.

As for `COc1ccc(/C=C2\C(=O)NC(=O)c3ccccc32)cc1OC`, the pEC50 was less than 4.22 and the negative-log IC50 (pIC50) was 4.50.

In the case of `O=C1OS(=O)(=O)c2ccccc21`, the pEC50 was less than 3.70 and the pIC50 was less than 3.70.

Take `CC(=O)/C=C/CCC(=O)/C=C/C(=O)OC(CCC(=O)/C=C/C(=O)O)CC(C)=O` (configuration not stated): the pEC50 is less than 3.70 and the pIC50 was 3.94.

Consider `Cn1c2ccccc2c(=O)c2c(O)cc3c(c21)C=CC1(CCCCC1)O3`, for which the pEC50 was less than 3.70 and the pIC50 was less than 3.70.

On to `COC(=O)[C@@H]1Cc2ccc(OC)c(c2)OCCC(=O)N1`, for which the pEC50 is less than 3.70 and the pIC50 was less than 3.70.

Turning to `Clc1ccc2c(NCCCCN3OC3c3ccccc3)ccnc2c1` (configuration not stated), the pEC50 is less than 3.70 and the pIC50 is 5.30.

In the case of `O=C1C=CC(=O)c2c(O)cccc21`, the result was inactive.

`OC(c1cc2ccccc2[nH]1)C(O)(c1cc2ccccc2[nH]1)c1cc2ccccc2[nH]1` (configuration not stated): the pEC50 was less than 4.89 and the pIC50 is 4.96.

Consider `O=c1ccc2nc3ccc(O)cc3oc-2c1`, for which the pEC50 is less than 3.70 and the pIC50 is 4.85.

For `NC(=O)NC(=NCc1ccccc1)NCc1ccccc1`, the pEC50 was less than 3.11 and the pIC50 was 3.97.

For `O=C1NC(c2ccc(O)cc2)C2CCC1C2` (configuration not stated), the pEC50 is less than 2.94 and the pIC50 is 3.02.

For the compound `O=C1C2CC3OC3CC2C(=O)N1CCCCCCN1C(=O)C2CC3OC3CC2C1=O` (configuration not stated), the pEC50 is less than 3.70 and the pIC50 is less than 3.70.

Turning to `Cc1cc(C)n2c(C)nnc2c1`, the pEC50 was less than 2.81 and the pIC50 is 2.95.

For `CCCCn1/c(=N/C(=S)N(C)C)ss/c1=N\C(=S)N(C)C`, the outcome was inactive.
